In patent publication US20220313658A1, “YAP Inhibition for Wound Healing” (The Board of Trustees of the Leland Stanford Junior …, priority 2019, published 2022):

How the values were obtained:
[1] = system: reticular dermal (Dlk1^+) ENFs; test: Fractionated ENF subpopulations cultured on TCPS with or without ROCK inhibitor; format: cell-based, mouse; details: 14 days, ROCK inhibitor added
Text: (§1) Mice were euthanized by CO2 narcosis and cervical dislocation, the dorsal fur was clipped, a depilatory cream was applied topically to the dorsum for 30 seconds. Next, the dorsal skin was harvested using dissecting scissors by separation along fascial planes, the subcutaneous fat was trimmed with a scalpel, and the skin was rinsed in betadine, followed by 5 rinses in cold PBS. To achieve a cell suspension, the harvested skin was finely minced using sharp scissors, enzymatically digested (Liberase DL, 0.5 mg/mL, 1 hour), and filtered through a 40 μm nylon mesh. ENFs and EPFs were isolated from En-1^Cre;R26^mTmG mice (En-1 lineage-negative cells, mTomato^+; En-1 lineage-positive cells, GFP^+) via a previously reported FACS strategy. Briefly, a lineage gate (Lin) for hematopoietic (CD45, Ter-119), endothelial (CD31, Tie2), and epithelial (CD326, CD324) cell markers was used as a negative gate to isolate fibroblasts (Lin^−), which were sorted into ENFs (Tornato^+GFP^−Lin^−) and EPFs (Tomato^−GFP+ Lin^−). To isolate ENF subpopulations, dorsal skin cells were harvested from P1 En-1^Cre,Ai6 mice (En-1 lineage-negative cells, no fluorescence; En-1 lineage-positive cells, GFP^+) via mechanical and enzymatic digestion as described above. […]

[2] = system: ENFs; test: ENFs cultured on stiff tissue culture plastic (TCPS) with ROCK inhibitor: En-1 activation; format: cell-based, mouse; details: bulk ENFs on stiff TCPS with ROCK inhibitor, 14 days in culture
Text: as §1

For `C[C@@H](N)[C@H]1CC[C@H](C(=O)Nc2ccncc2)CC1` [Y-27632], the “En-1 activation in Dlk1+ ENFs” value [1] was “blocked” and the “En-1 activation (conversion of ENFs to GFP+ EPFs)” value [2] was “lack of En-1 activation”.
